{"source": "patent US7270965B2", "about": "“Assays to screen for compounds that bind the dorsal root receptor” (AstraZeneca AB, priority 2000, dated 2007)", "assay_type_in_all_cases": "cell-based", "key": {"[1]": {"target": "T1, rat DRR (Rattus norvegicus, UniProt Q8R4G1)", "T1 construct": "expressed in transfected cells", "T1 sequence (Q8R4G1 1-323)": "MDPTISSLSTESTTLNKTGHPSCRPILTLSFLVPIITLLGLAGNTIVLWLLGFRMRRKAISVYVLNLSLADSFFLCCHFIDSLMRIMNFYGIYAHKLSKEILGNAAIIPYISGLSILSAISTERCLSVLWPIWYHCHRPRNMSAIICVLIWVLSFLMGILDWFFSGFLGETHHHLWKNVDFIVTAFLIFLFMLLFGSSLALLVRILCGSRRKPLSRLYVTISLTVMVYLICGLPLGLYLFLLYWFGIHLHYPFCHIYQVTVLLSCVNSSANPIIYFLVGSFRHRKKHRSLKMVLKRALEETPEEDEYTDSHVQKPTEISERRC", "experiment": "FLIPR calcium mobilization assay (Fluo-3), HEK-293 cells expressing rat DRR", "protocol": "(§1) REK-293 cells were transfected with a mammalian expression construct coding for the rat and human DRRs (pcDNA 3.0 vector, Invitrogen) using the Superfect reagent (Qiagen). A stable receptor pool of DRR was developed by applying a selection marker (G418, 0.9 mg/ml) and the cells were maintained in this selection medium. The presence of mRNA specific for clone DRR was assessed by Northern blot analysis and by the reverse transcriptase polymerase chain reaction (RT-PCR).\n(§2) In order to identify the ligand of clone rat and human DRRs, a collection of peptide and non-peptide ligands was obtained from commercial sources (Sigma, CalBiochem, American Peptide Company, Bachem, RBI, Phoenix). The compounds were dissolved in water/DMSO at 3 μM and placed in 96 well microplates. A total of 1000 compounds (peptides and non-peptides) were prepared and tested.\n(§3) A functional assay was performed with FLIPR (Fluorescent Imaging Plate Reader, Molecular Devices) using the fluorescent calcium indicator Fluo-3 (Molecular Probes) on a 96 well platform. BEK-293 cells, either expressing the receptor or wild type cells, were loaded with Fluo-3 as follows. […] The cells were analyzed using the FLIPR system to measure the mobilization of intracellular calcium in response to different compounds."}, "[2]": {"test_system": "human DRR", "experiment": "FLIPR calcium mobilization assay (Fluo-3), HEK-293 cells expressing human DRR", "protocol": "as §1, §2, §3"}, "[3]": {"test_system": "parental HEK-293 cells (non-transfected)", "experiment": "FLIPR calcium mobilization assay (Fluo-3), parental (non-transfected) HEK-293 cells", "settings": "wild type / parental HEK-293 cells, compounds dissolved at 3 μM", "protocol": "as §2\nA functional assay was performed with FLIPR (Fluorescent Imaging Plate Reader, Molecular Devices) using the fluorescent calcium indicator Fluo-3 (Molecular Probes) on a 96 well platform. BEK-293 cells, either expressing the receptor or wild type cells, were loaded with Fluo-3 as follows. Stable HEK-293 clones expressing rat and human DRR or parental cells were plated at a density of 10,000 cells/well in a 96 well plate. On the day of the experiment, the DRR cells were loaded with fluorescent solution (Dulbecco's modified medium with 10% fetal bovine serum containing 4 μM Fluo-3 and 20% pluronic acid). The cells were incubated at 37 C for one hour in a humidified chamber. Following the incubation step, cells were washed five times in Hanks' with 20 mM Hepes and 0.1% BSA (pH 7.4). The cells were analyzed using the FLIPR system to measure the mobilization of intracellular calcium in response to different compounds. […]"}}}
{"substance": "YGGFMRRVGRPEWWMDYOKRYG-OH [BAM-22P]", "values": [{"measurement": "calcium response (mobilization of intracellular calcium)", "setting": "[1]; HEK-293 cells expressing clone rat DRR, FLIPR, Fluo-3, compounds dissolved at 3 μM", "result": "consistently elicited signals"}, {"measurement": "dose-response relationship of calcium response", "setting": "[1]; cells transfected with rat DRR", "result": "observation of a dose-response relationship"}, {"measurement": "calcium response (mobilization of intracellular calcium)", "setting": "[2]; HEK-293 cells expressing clone human DRR, FLIPR, Fluo-3, compounds dissolved at 3 μM", "result": "consistently elicited signals"}, {"measurement": "dose-response relationship of calcium response", "setting": "[2]; cells transfected with human DRR", "result": "observation of a dose-response relationship"}, {"measurement": "calcium response (mobilization of intracellular calcium)", "setting": "[3]", "result": "not the wild type cells"}]}
